Read-outs that look alike come from different tables or passages of the source.
Columns and labels:
[1] = tested on: Ixodes ricinus; assay: In vitro Warm Plate Assay for ticks; type: in vivo
Outline: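 Repellency against last-stage Ixodes ricinus nymphs in an in vitro warm plate assay, compounds diluted in ethanol at 0.4 and 10 mg/mL, 0.0016% to 1%, or 20% (w/w). Ticks walking down or falling from the treated plate scored as affected, walking up as unaffected; groups of 12 ticks, n=2-5.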

[2] = tested on: Aedes aegypti; assay: In vitro K&D (Klun & Debboun) assay, mosquitoes biting through treated cloth over membrane-blood reservoir; type: in vivo
Procedure: Controlling efficacy was tested against the yellow fever mosquito, A. aegypti Rockefeller strain.
Observations of controlling efficacy were made on host-seeking females of uniform age, 5 to 10 days post-eclosion from pupae. Tested hungry females had access to 10% sugar solution but were not blood-fed.
The controlling efficacy in vitro was measured using the Klun & Debboun (K&D) assay test module [Klun J A, Kramer M, Debboun M. A new in vitro bioassay system for discovery of novel human-use mosquito controlling compounds. J Am Mosq Control Assoc. 2005; 21:64-70], which is an adaptation of the K&D module [Klun J A, Debboun M. A new module for quantitative evaluation of controlling efficacy using human subjects. J Med Entomol. 2000; 37:177-81.], initially developed and used for quantitative measurement of the efficacy of mosquito controlling compounds on human subjects.
In the in vitro assay the module is coupled with a membrane-blood reservoir, consisting of a unit with six wells that are filled with 7 mL defibrinated pig blood maintained at a constant temperature of 38° C. and covered with a bovine collagen film (Devro plc, Edicol-MX400 CLR 100M REEL) as the membrane. Over the membrane a piece of cotton cloth (Baptist Roh, 100% cotton, weight: 69.0 g/m^2, thread density: warp and woof 26.5×26.5 thread/cm, Modessa Basel) was placed after being treated with 80 μL of the tested stimuli.
The K&D unit, containing five mosquitoes in each cell was finally placed on top of the treated cloth. Then the numbers of mosquitoes biting in each cell within a 3-min exposure were recorded. This procedure was repeated until 6 replicate exposures and observations (i.e. 30 mosquitoes) were made.

## Cc1ccc2c(c1)CC(C)(CO)C2 (stereo not shown) [ingredient #2, (2,5-dimethyl-2,3-dihydro-1H-inden-2yl)methanol]
[1]; 0.00032% (Table 9)
  percentage of ticks being affected: 0%
[1]; 0.4 mg/mL in ethanol (Table 5)
  MEAN % affected (ticks): 21%
[1]; 0.00071% (Table 9)
  percentage of ticks being affected: 15%
[1]; 0.0016% (Table 9)
  percentage of ticks being affected: 17%
[1]; 0.00357% (Table 9)
  percentage of ticks being affected: 0%
[1]; 0.0053% (Table 9)
  percentage of ticks being affected: 15%
[1]; 0.008% (Table 9)
  percentage of ticks being affected: 0%
[1]; 10 mg/mL in ethanol (Table 5)
  MEAN % affected (ticks): 92%
[1]; 0.0119% (Table 9)
  percentage of ticks being affected: 8%
[1]; 0.0178% (Table 9)
  percentage of ticks being affected: 17%
[1]; 0.0267% (Table 9)
  percentage of ticks being affected: 38%
[1]; 0.04% (Table 9)
  percentage of ticks being affected: 0%
[1]; 0.0598% (Table 9)
  percentage of ticks being affected: 31%
[1]; 0.089% (Table 9)
  percentage of ticks being affected: 29%
[1]; 0.2% (Table 9)
  percentage of ticks being affected: 85%
[1]; 0.447% (Table 9)
  percentage of ticks being affected: 100%
[1]; 1%
  ticks affected / not affected over 12 (in words): only one tick over 12 was not affected
[1]; 1% (Table 9)
  percentage of ticks being affected: 71%
[1]; 20% (w/w) in ethanol, 0.25 h post-application
  percentage of ticks affected overtime: 100%
[1]; 20% (w/w) in ethanol, 0.5 h post-application
  percentage of ticks affected overtime: 83%
[1]; 20% (w/w) in ethanol, 1 h post-application
  percentage of ticks affected overtime: 100%
[1]; 20% (w/w) in ethanol, 2 h post-application
  percentage of ticks affected overtime: 100%
[1]; 20% (w/w) in ethanol, 4 h post-application
  percentage of ticks affected overtime: 0%
[1]; 20% (w/w) in ethanol, 6 h post-application
  percentage of ticks affected overtime: 8%
[1]; 20% (w/w) in ethanol, Table 14
  ticks' repellency overtime (in words): better ticks' repellency than the known repellent
[1]; Ixodes ricinus, 0.0016% (Table 11), read-out: percentage of ticks affected on the Warm Plate
  pest or weed control at 0.0016 %: 8%
[1]; Ixodes ricinus, 0.0016% in ethanol (Table 12), read-out: percentage of ticks affected on the Warm Plate
  pest or weed control at 0.0016 %: 17%
[1]; Ixodes ricinus, 0.0053% in ethanol (Table 12), read-out: percentage of ticks affected on the Warm Plate
  pest or weed control at 0.0053 %: 15%
[1]; Ixodes ricinus, 0.008% in ethanol (Table 12), read-out: percentage of ticks affected on the Warm Plate
  pest or weed control at 0.008 %: 0%
[1]; Ixodes ricinus, 0.0119% in ethanol (Table 12), read-out: percentage of ticks affected on the Warm Plate
  pest or weed control at 0.0119 %: 8%
[1]; Ixodes ricinus, 0.0178% in ethanol (Table 12), read-out: percentage of ticks affected on the Warm Plate
  pest or weed control at 0.0178 %: 17%
[1]; Ixodes ricinus, 0.0267% in ethanol (Table 12), read-out: percentage of ticks affected on the Warm Plate
  pest or weed control at 0.0267 %: 38%
[1]; Ixodes ricinus, 0.04% (Table 11), read-out: percentage of ticks affected on the Warm Plate
  pest or weed control at 0.04 %: 0%
[1]; Ixodes ricinus, 0.04% in ethanol (Table 12), read-out: percentage of ticks affected on the Warm Plate
  pest or weed control at 0.04 %: 0%
[1]; Ixodes ricinus, 0.0598% in ethanol (Table 12), read-out: percentage of ticks affected on the Warm Plate
  pest or weed control at 0.0598 %: 31%
[1]; Ixodes ricinus, 0.089% in ethanol (Table 12), read-out: percentage of ticks affected on the Warm Plate
  pest or weed control at 0.089 %: 29%
[1]; Ixodes ricinus, 0.2% in ethanol (Table 12), read-out: percentage of ticks affected on the Warm Plate
  pest or weed control at 0.2 %: 85%
[1]; Ixodes ricinus, 0.447% in ethanol (Table 12), read-out: percentage of ticks affected on the Warm Plate
  pest or weed control at 0.447 %: 100%
[1]; Ixodes ricinus, 1% (Table 11), read-out: percentage of ticks affected on the Warm Plate
  pest or weed control at 1 %: 92%
[1]; Ixodes ricinus, 1% in ethanol (Table 12), read-out: percentage of ticks affected on the Warm Plate
  pest or weed control at 1 %: 71%
[1]; Table 9
  threshold concentration to be efficient to repel the ticks: above 0.2%
[1]; dose of 0.89%
  ticks affected: 29%
[2]; 0.0008% in ethanol
  % repulsion: 21.5%
[2]; 0.004% in ethanol
  % repulsion: 25.3%
[2]; 0.02% in ethanol
  % repulsion: 33.8%
[2]; 0.1% in ethanol
  % repulsion: 57.1%
[2]; 0.5% in ethanol
  % repulsion: 84.6%
[2]; 2.5% in ethanol
  % repulsion: 92.3%
[2]; on its own, in ethanol
  concentration from which a significant repellent effect is shown: ≥ 0.1%
